The record followed here is patent US8569344B2, “N-piperidinyl acetamide derivatives as calcium channel blockers” (Zalicus Pharmaceuticals Ltd., priority 2008, dated 2013).

For orientation: IC50 means the point on the concentration scale where inhibition reaches its midpoint.

For assay [1], the target named is T1, human α1G T-type channels (Homo sapiens, UniProt O43497).
T1 construct: expressed in transfected cells; host or cells: HEK 293
The assay is described as follows: T-type calcium channel block, whole cell patch clamp in HEK cells (α1G). The assay is classed as cell-based.

For assay [2], the target named is T2, human α1H T-type channels (Homo sapiens, UniProt O95180).
T2 construct: expressed in transfected cells; host or cells: HEK 293
T2 sequence (O95180 whole entry): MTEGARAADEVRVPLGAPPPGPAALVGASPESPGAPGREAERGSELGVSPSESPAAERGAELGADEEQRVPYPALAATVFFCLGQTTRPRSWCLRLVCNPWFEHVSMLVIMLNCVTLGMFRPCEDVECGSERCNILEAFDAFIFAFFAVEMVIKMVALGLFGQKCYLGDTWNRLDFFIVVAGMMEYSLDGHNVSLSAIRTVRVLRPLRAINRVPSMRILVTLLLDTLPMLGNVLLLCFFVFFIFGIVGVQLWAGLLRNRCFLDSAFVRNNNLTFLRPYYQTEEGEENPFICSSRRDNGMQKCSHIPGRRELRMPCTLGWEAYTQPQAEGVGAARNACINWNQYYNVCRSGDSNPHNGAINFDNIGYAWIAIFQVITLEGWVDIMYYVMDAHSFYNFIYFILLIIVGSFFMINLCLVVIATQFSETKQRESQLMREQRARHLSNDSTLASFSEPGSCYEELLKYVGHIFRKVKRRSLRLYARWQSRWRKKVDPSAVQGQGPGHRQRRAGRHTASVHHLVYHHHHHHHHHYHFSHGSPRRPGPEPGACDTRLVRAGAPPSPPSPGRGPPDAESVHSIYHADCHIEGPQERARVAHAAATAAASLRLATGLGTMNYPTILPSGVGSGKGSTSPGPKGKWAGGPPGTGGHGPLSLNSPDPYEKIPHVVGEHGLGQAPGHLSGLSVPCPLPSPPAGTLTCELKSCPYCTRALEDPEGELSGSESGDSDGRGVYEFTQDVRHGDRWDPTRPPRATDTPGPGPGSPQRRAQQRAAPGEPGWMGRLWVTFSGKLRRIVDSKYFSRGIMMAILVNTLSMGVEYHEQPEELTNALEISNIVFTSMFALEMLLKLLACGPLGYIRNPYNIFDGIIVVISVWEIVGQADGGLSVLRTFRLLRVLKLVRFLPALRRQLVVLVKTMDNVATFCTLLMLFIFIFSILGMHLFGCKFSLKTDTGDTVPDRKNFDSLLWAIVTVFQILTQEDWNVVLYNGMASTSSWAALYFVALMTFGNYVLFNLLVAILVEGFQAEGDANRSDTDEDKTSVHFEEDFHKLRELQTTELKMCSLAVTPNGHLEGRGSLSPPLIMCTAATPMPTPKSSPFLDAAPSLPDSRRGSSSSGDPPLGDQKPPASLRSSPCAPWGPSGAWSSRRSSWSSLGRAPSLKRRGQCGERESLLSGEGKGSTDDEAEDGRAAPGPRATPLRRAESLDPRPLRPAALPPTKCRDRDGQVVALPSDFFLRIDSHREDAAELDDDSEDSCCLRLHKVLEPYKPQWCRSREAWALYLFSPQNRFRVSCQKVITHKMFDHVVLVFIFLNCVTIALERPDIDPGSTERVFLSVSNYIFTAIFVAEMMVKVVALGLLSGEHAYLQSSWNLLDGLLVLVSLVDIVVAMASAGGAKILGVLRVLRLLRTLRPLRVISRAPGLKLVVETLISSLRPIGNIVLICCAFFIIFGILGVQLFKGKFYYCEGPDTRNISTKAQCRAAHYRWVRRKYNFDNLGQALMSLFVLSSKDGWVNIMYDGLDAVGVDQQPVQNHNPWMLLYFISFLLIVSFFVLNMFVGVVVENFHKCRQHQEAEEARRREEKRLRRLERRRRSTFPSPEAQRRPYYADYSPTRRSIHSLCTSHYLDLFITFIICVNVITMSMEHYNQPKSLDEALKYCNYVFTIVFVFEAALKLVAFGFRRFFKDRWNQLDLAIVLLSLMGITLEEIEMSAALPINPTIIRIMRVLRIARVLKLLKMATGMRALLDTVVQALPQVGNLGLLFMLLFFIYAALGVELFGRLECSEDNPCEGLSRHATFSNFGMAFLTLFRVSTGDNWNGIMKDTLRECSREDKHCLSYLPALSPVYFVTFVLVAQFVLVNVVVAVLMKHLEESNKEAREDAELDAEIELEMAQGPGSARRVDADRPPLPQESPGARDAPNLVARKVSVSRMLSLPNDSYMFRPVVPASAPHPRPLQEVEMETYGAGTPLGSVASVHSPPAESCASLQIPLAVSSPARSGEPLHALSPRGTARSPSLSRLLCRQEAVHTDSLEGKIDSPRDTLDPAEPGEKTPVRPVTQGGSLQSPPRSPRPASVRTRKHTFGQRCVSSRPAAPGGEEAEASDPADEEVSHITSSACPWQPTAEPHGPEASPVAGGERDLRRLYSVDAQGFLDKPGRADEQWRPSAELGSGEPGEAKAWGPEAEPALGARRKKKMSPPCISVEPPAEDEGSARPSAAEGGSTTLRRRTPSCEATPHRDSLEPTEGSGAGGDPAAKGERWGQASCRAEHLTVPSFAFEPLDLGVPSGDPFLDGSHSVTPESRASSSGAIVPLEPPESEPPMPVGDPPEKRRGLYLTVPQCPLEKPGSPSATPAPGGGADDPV
Kind of assay: T-type calcium channel block, whole cell patch clamp in HEK cells (α1H). The assay is classed as cell-based. (The patch-clamp technique gives a direct electrical read-out from membranes.)

The mark [3] stands for this setting: HEK cells, patch clamp, mainly non-inactivated protocol, values above 10 μM shown as 10 μM, below 0.30 μM shown as 0.30 μM, read-out: T-type Calcium Channel Block α1G IC50.
The mark [4] stands for this setting: HEK cells, patch clamp, mainly non-inactivated protocol, values above 10 μM shown as 10 μM, read-out: T-type Calcium Channel Block α1H IC50.

Where two headings read alike, the source gives them in different places.

T1 sequence (O43497 whole entry): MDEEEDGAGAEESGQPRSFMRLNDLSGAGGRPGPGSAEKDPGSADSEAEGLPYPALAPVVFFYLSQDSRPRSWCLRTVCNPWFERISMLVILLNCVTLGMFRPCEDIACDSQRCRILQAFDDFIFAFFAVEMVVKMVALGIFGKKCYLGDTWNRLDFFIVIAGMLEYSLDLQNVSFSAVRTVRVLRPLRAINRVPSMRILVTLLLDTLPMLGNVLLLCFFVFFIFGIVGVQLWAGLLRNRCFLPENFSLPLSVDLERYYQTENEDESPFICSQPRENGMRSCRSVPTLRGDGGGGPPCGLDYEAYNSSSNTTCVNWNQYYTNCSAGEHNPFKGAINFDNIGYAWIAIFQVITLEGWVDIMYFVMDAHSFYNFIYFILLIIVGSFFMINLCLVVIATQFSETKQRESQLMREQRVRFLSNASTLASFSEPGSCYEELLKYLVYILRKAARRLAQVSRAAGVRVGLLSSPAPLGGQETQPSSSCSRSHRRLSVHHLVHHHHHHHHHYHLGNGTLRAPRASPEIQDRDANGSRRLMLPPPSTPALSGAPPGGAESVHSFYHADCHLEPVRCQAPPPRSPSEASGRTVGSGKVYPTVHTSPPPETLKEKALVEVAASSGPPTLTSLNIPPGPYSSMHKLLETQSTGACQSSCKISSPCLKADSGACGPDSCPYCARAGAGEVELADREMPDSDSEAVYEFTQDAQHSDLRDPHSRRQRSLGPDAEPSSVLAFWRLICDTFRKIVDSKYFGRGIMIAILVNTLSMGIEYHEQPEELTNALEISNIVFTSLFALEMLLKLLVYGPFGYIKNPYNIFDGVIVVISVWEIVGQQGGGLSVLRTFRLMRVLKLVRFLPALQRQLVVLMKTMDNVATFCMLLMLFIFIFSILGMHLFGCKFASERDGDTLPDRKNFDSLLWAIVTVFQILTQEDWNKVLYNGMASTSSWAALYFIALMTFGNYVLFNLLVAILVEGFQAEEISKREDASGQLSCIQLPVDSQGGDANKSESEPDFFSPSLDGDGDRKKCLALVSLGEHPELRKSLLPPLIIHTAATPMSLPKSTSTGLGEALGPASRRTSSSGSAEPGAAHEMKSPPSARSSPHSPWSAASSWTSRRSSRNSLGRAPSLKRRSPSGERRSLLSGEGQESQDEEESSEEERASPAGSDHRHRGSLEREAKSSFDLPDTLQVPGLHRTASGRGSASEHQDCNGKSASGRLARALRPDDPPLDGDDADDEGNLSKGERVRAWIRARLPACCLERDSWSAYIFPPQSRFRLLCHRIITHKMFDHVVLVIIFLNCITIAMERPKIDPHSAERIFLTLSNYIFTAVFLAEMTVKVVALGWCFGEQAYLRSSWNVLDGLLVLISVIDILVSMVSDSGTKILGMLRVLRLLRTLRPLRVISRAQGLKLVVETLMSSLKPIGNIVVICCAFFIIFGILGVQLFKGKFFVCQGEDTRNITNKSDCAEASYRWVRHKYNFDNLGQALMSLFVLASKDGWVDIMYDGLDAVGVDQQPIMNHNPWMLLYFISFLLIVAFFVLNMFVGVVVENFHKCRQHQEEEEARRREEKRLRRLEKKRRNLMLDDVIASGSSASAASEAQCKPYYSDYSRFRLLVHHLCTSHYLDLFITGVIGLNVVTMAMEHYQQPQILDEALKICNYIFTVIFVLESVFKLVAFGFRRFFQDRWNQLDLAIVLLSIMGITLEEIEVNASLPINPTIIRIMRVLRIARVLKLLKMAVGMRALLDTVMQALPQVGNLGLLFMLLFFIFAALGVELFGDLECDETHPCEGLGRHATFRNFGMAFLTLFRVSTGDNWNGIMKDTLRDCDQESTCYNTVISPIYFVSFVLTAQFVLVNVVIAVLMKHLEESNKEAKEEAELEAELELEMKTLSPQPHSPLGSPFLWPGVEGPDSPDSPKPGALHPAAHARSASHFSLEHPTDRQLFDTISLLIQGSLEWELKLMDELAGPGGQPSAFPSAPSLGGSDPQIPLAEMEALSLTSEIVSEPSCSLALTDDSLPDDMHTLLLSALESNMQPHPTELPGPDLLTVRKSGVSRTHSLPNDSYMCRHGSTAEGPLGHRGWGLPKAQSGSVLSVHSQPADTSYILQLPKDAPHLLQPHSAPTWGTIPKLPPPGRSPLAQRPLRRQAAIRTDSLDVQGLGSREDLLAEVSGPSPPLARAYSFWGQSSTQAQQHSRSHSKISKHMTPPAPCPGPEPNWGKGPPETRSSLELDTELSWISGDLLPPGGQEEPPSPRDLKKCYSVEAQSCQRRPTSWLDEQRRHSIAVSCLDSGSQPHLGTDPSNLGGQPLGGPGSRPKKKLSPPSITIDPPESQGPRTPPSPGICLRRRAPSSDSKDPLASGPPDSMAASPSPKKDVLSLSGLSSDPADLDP

Turning to `CCCNC(=O)CN1CCC(CNC(=O)c2cccc(Br)c2)CC1` [Compound 450, 3-bromo-N-((1-(2-oxo-2-(propylamino)ethyl)piperidin-4-yl)methyl)benzamide], the IC50 in assay [1] (setting [3]) is 8880 nM; in assay [2] (setting [4]) it was over 10000 nM.
Turning to `Cc1cc(F)cc(C(=O)NCC2CCN(CC(=O)NC3CCCC3)CC2)c1` [Compound 533, N-((1-(2-(cyclopentylamino)-2-oxoethyl)piperidin-4-yl)methyl)-3-fluoro-5-methylbenzamide], the IC50 was determined as 430 nM in assay [1] (setting [3]) and 400 nM in assay [2] (setting [4]).
Take `CC.CC(F)CNC(=O)CN1CCC(CNC(=O)c2cc(F)cc(Cl)c2)CC1` (stereo not drawn) [Compound 553, 3-chloro-5-fluoro-N-((1-(2-(2-fluoropropylamino)-2-oxoethyl)piperidin-4-yl)methyl)benzamide compound with ethane (1:1)]: the figures for the IC50 in assay [1] and in assay [2] were 2520 nM and 1730 nM, respectively.
In the case of `COc1cc(Cl)cc(C(=O)NCC2CCN(CCNS(=O)(=O)C(F)(F)F)CC2)c1` [Compound 326, 3-chloro-5-methoxy-N-((1-(2-(trifluoromethylsulfonamido)ethyl)piperidin-4-yl)methyl)benzamide], the IC50 was over 10000 nM in assay [1] (setting [3]) and 6990 nM in assay [2] (setting [4]).
For `CC(C)(C)OC(=O)NC1(C(=O)NCCN2CCC(CNC(=O)c3cc(F)cc(C(F)(F)F)c3)CC2)CCC1` [Compound 572, tert-buyl 1-(2-(4-((3-fluoro-5-(trifluoromethyl)benzamido)methyl)piperidin-1-yl)ethylcarbamoyl) cyclobutylcarbamate], the IC50 in assay [1] (setting [3]) worked out at 490 nM; in assay [2] (setting [4]) it was 1560 nM.
Consider `CC(C)(C)OC(=O)NC(CN1CCC(CC(=O)NCc2cc(Cl)cc(Cl)c2)CC1)C(C)(C)C` (stereo not drawn) [Compound 198, tert-butyl 1-(4-(2-(3,5-dichloro-benzylamino)-2-oxoethyl)piperidin-1-yl)-3,3-dimethylbutan-2-ylcarbamate], for which the IC50 in assay [1] (setting [3]) was 400 nM; in assay [2] (setting [4]), 1300 nM.
Take `CCOC(=O)NC(CN1CCC(CC(=O)NCc2cc(Cl)cc(Cl)c2)CC1)C(C)(C)C` (stereo not drawn) [Compound 224, ethyl 1-(4-(2-(3,5-dichlorobenzyl-amino)-2-oxoethyl)piperidin-1-yl)-3,3-dimethylbutan-2-ylcarbamate]: the figures for the IC50 in assay [1] (setting [3]) and in assay [2] (setting [4]) were 3760 nM and 6190 nM, respectively.
In the case of `CCNC(=O)N(C)CCN1CCC(CNC(=O)c2cc(F)cc(C(F)(F)F)c2)CC1` [Compound 524, N-((1-(2-(3-ethyl-1-methylureido)ethyl)piperidin-4-yl)methyl)-3-fluoro-5-(trifluoromethyl) benzamide], the IC50 in assay [1] (setting [3]) and in assay [2] (setting [4]) was over 10000 nM each time.
As to `CCS(=O)(=O)NC1(CN2CCC(CNC(=O)c3cc(C(F)(F)F)cc(C(F)(F)F)c3)CC2)CCCC1` [Compound 3, N-((1-((1-(ethylsulfonamido)cyclopentyl)methyl)piperidin-4-yl)methyl)-3,5-bis(trifluoromethyl)benzamide], the IC50 in assay [1] (setting [3]) is under 300 nM; in assay [2] (setting [4]), 550 nM.
With `CC(C)COC(=O)NCCN1CCC(CNC(=O)c2cc(C(F)(F)F)cc(C(F)(F)F)c2)CC1` [Compound 37, isobutyl 2-(4-((3,5-bis(trifluoromethyl)benzamido)methyl)piperidin-1-yl)ethylcarbamate], the IC50 in assay [1] (setting [3]) is under 300 nM; in assay [2] (setting [4]), 170 nM.
The like results for `CCCNC(=O)NC1(CN2CCC(CNC(=O)c3cc(C(F)(F)F)cc(C(F)(F)F)c3)CC2)CCCC1` [Compound 13, N-((1-((1-(3-propylureido)cyclopentyl)methyl)piperidin-4-yl)methyl)-3,5-bis(trifluoromethyl)benzamide] were, in that order, 630 nM and 1870 nM.
The like results for `CC(C)(C)C(=O)NC1(CN2CCC(CNC(=O)c3cc(C(F)(F)F)cc(C(F)(F)F)c3)CC2)CC1` [Compound 361, N-((1-((1-pivalamidocyclopropyl)methyl)piperidin-4-yl)methyl)-3,5-bis(trifluoromethyl)benzamide] were, in that order, 700 nM and 600 nM.
